Assay results from US6914045B2, “Glycopeptide antibiotics” (Wyeth Holdings Corporation, priority 2001, dated 2005).
Values after ≈ are worked out from the molar mass of the structure shown.

Legend:
Assay in all cases: in vitro antibacterial evaluation, MIC by broth dilution
Assay type in all cases: cell-based
[1] = system: Staphylococcus sp.; details: broth dilution, 18 hours at 35° C.
Outline: (§1)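 Inoculum 5×10^5 CFU/mL; concentrations 64 to 0.06 μg/mL; MIC defined as lowest inhibitory level. Conducted by broth dilution under NCCLS guidelines.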

[2] = system: Enterococcus sp.; details: broth dilution, 18 hours at 35° C.
Outline: as §1

[3] = system: Streptococcus sp.; details: broth dilution, 18 hours at 35° C.
Outline: as §1

[4] = system: Escherichia coli; details: 18 hours at 35° C.

In the case of N=C1NCC(C(O)C2NC(=O)C(CC3CCC(OC4OC(CO)C(OC5OC6COC7(OC6C(O)C5O)C5CC6CC(C5)CC7C6)C(O)C4O)CC3)NC(=O)C(CC3CCCCC3)NC(=O)CNC(=O)C(CO)NC(=O)C(C(O)C3CNC(=N)N3C3OC(CO)C(O)C(O)C3O)NC2=O)N1 (single isomer, unassigned) [Example 223], the “MIC Staphylococcus aureus (ATCC 29213)” value ([1]; strain ATCC 29213) is reported as greater than 64 µg/mL, the “MIC Staphylococcus aureus (GC 1131)” value ([1]; strain GC 1131) is reported as greater than 64 µg/mL and the “MIC Staphylococcus aureus (GC 3051)” value ([1]; strain GC 3051) is reported as 64 µg/mL (≈ 44.9 µM). The “MIC Staphylococcus aureus (GC 3053)” value ([1]; strain GC 3053) was greater than 64 µg/mL, the “MIC Staphylococcus aureus (GC 4541)” value ([1]; strain GC 4541) was 64 µg/mL (≈ 44.9 µM) and the “MIC Staphylococcus aureus (GC 4542)” value ([1]; strain GC 4542) was 64 µg/mL (≈ 44.9 µM). For the same compound, the “MIC Staphylococcus aureus-SMITH (GC 4543)” value ([1]; strain GC 4543) was 64 µg/mL (≈ 44.9 µM), the “MIC Staphylococcus aureus (GC 4544)” value ([1]; strain GC 4544) was 64 µg/mL (≈ 44.9 µM) and the “MIC Staphylococcus aureus (GC 4545)” value ([1]; strain GC 4545) was 64 µg/mL (≈ 44.9 µM). For the same compound, the “MIC Staphylococcus haemolyticus (GC 4546)” value ([1]; strain GC 4546) was 64 µg/mL (≈ 44.9 µM), the “MIC Coagulase Negative Staphylococcus (GC 4547)” value ([1]; strain GC 4547) was 64 µg/mL (≈ 44.9 µM) and the “MIC Coagulase Negative Staphylococcus (GC 4548)” value ([1]; strain GC 4548) was 64 µg/mL (≈ 44.9 µM). For the same compound, the “MIC Coagulase Negative Staphylococcus (GC 4549)” value ([1]; strain GC 4549) was 64 µg/mL (≈ 44.9 µM), the “MIC Coagulase Negative Staphylococcus (GC 4551)” value ([1]; strain GC 4551) was 64 µg/mL (≈ 44.9 µM) and the “MIC Enterococcus avium (GC 4558)” value [2] was 64 µg/mL (≈ 44.9 µM). For the same compound, the “MIC Enterococcus faecalis (ATCC 29212)” value [2] was greater than 64 µg/mL, the “MIC Enterococcus faecalis (GC 2242)” value [2] was greater than 64 µg/mL and the “MIC Enterococcus faecalis (GC 2691)” value [2] was greater than 64 µg/mL. For the same compound, the “MIC Enterococcus faecalis (GC 3059)” value [2] was greater than 64 µg/mL, the “MIC Enterococcus faecalis (GC 4552)” value [2] was greater than 64 µg/mL and the “MIC Enterococcus faecalis (GC 4553)” value [2] was 64 µg/mL (≈ 44.9 µM). For the same compound, the “MIC Enterococcus faecalis (GC 4554)” value [2] was greater than 64 µg/mL, the “MIC Enterococcus faecalis (GC 6189)” value [2] was greater than 64 µg/mL and the “MIC Enterococcus faecium (GC 2243)” value [2] was greater than 64 µg/mL. For the same compound, the “MIC Enterococcus faecium (GC 4556)” value [2] was greater than 64 µg/mL, the “MIC Enterococcus faecium (GC 4557)” value [2] was 64 µg/mL (≈ 44.9 µM) and the “MIC Enterococcus faecalis (ATCC 29212)” value ([2]; inoculum 5×10^5 CFU/mL, strain ATCC 29212) was greater than 64 µg/mL. The “MIC Enterococcus faecalis (GC 2242)” value ([2]; inoculum 5×10^5 CFU/mL, strain GC 2242) was greater than 64 µg/mL, the “MIC Enterococcus faecium (GC 2243)” value ([2]; inoculum 5×10^5 CFU/mL, strain GC 2243) was greater than 64 µg/mL and the “MIC Enterococcus faecalis (GC 2691)” value ([2]; inoculum 5×10^5 CFU/mL, strain GC 2691) was greater than 64 µg/mL. The “MIC Enterococcus faecalis (GC 3059)” value ([2]; inoculum 5×10^5 CFU/mL, strain GC 3059) was greater than 64 µg/mL, the “MIC Enterococcus faecalis (GC 4552)” value ([2]; inoculum 5×10^5 CFU/mL, strain GC 4552) was greater than 64 µg/mL and the “MIC Enterococcus faecalis (GC 4553)” value ([2]; inoculum 5×10^5 CFU/mL, strain GC 4553) was 64 µg/mL (≈ 44.9 µM). For the same compound, the “MIC Enterococcus faecalis (GC 4554)” value ([2]; inoculum 5×10^5 CFU/mL, strain GC 4554) was greater than 64 µg/mL, the “MIC Enterococcus faecium (GC 4556)” value ([2]; inoculum 5×10^5 CFU/mL, strain GC 4556) was greater than 64 µg/mL and the “MIC Enterococcus faecium (GC 4557)” value ([2]; inoculum 5×10^5 CFU/mL, strain GC 4557) was 64 µg/mL (≈ 44.9 µM). The “MIC Enterococcus avium (GC 4558)” value ([2]; inoculum 5×10^5 CFU/mL, strain GC 4558) was 64 µg/mL (≈ 44.9 µM), the “MIC Enterococcus faecalis (GC 6189)” value ([2]; inoculum 5×10^5 CFU/mL, strain GC 6189) was greater than 64 µg/mL and the “MIC Streptococcus agalactiae (GC 4564)” value [3] was greater than 64 µg/mL. For the same compound, the “MIC Streptococcus pneumoniae (ATCC 6301)” value [3] was 64 µg/mL (≈ 44.9 µM), the “MIC Streptococcus pneumoniae (GC 1894)” value [3] was 32 µg/mL (≈ 22.4 µM) and the “MIC Streptococcus pneumoniae (GC 4565)” value [3] was greater than 64 µg/mL. The “MIC Streptococcus pyogenes (GC 4563)” value [3] was 64 µg/mL (≈ 44.9 µM), the “MIC Streptococcus pneumoniae (ATCC 6301)” value ([3]; inoculum 5×10^5 CFU/mL, strain ATCC 6301) was 64 µg/mL (≈ 44.9 µM) and the “MIC Streptococcus pneumoniae (GC 1894)” value ([3]; inoculum 5×10^5 CFU/mL, strain GC 1894) was 32 µg/mL (≈ 22.4 µM). The “MIC Streptococcus pyogenes (GC 4563)” value ([3]; inoculum 5×10^5 CFU/mL, strain GC 4563) was 64 µg/mL (≈ 44.9 µM), the “MIC Streptococcus agalactiae (GC 4564)” value ([3]; inoculum 5×10^5 CFU/mL, strain GC 4564) was greater than 64 µg/mL and the “MIC Streptococcus pneumoniae (GC 4565)” value ([3]; inoculum 5×10^5 CFU/mL, strain GC 4565) was greater than 64 µg/mL. The “MIC Escherichia coli (ATCC 25922)” value [4] was greater than 64 µg/mL, the “MIC Escherichia coli (GC 4559)” value [4] was greater than 64 µg/mL and the “MIC Escherichia coli (GC 4560)” value [4] was 32 µg/mL (≈ 22.4 µM).
